Results published in PubChem BioAssay (NCI).
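Values below derive from 48-hour exposures of cells grown in 96-well plates, with endpoints linearly interpolated between the two concentrations bracketing the appropriate inhibition level. GI50: concentration for 50% inhibition of growth. The concentration for full growth arrest is given as TGI.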

Legend:
Experiment in all cases: inhibition of tumour cell growth, NCI panel, 48 h
[1] = tested on: HCT-116 colon
[2] = tested on: LOX IMVI melanoma
[3] = tested on: NCI/ADR-RES ovarian
[4] = tested on: 786-0 renal
[5] = tested on: MDA-MB-435
[6] = tested on: K-562 leukemia
[7] = tested on: OVCAR-5 ovarian
[8] = tested on: SF-295 CNS
[9] = tested on: SR leukemia
[10] = tested on: BT-549 breast

| SMILES | GI50 [1] | TGI [1] | GI50 [2] | TGI [2] | GI50 [3] | TGI [3] | GI50 [4] | TGI [4] | GI50 [5] | TGI [5] | GI50 [6] | TGI [6] | GI50 [7] | TGI [7] | GI50 [8] | TGI [8] | GI50 [9] | TGI [9] | GI50 [10] | TGI [10] |
| --- | --- | --- | --- | --- | --- | --- | --- | --- | --- | --- | --- | --- | --- | --- | --- | --- | --- | --- | --- | --- |
| O=C(CC1Sc2ccccc2NC1=O)NNc1ccc(F)cc1 (stereo unspecified) | 77.3 µM | > 100 µM | 4510 nM | > 100 µM | 22.5 µM | > 100 µM | 29.5 µM | > 100 µM | 4.34 µM | > 100 µM | 4.67 µM | > 100 µM | > 100 µM | > 100 µM | 12.7 µM | > 100 µM | 14400 nM | > 100 µM | > 100 µM | > 100 µM |
| Cc1ccc(C2C3Cc4ccccc4C3=NN2c2ccc(S(=O)(=O)NC(=O)Nc3ccccc3)cc2)cc1 (stereo unspecified) | 3.4 µM | 49.1 µM | 13500 nM | 27.9 µM | 14.7 µM | 38.8 µM | 12.8 µM | 36.5 µM | 18.7 µM | 46.2 µM | 11.5 µM | 26.8 µM | 14.5 µM | 30.5 µM | 12.8 µM | 33.6 µM | 2510 nM | 16.1 µM | 14.7 µM | 34.5 µM |
| COC(=O)[C@H](CCCCNC(=O)OCc1ccccc1)NC(=O)[C@@H](NC(=O)Nc1cc(C(F)(F)F)cc(C(F)(F)F)c1)C(C)C | > 10 µM | > 10 µM | > 10000 nM | > 10 µM | > 10 µM | > 10 µM | > 10 µM | > 10 µM | > 10 µM | > 10 µM | > 10 µM | > 10 µM | > 10 µM | > 10 µM | > 10 µM | > 10 µM | > 10000 nM | > 10 µM | > 10 µM | > 10 µM |
| CCOC(=O)c1cc2c(n1Cc1ccccc1OC)-c1oncc1CCC2 | 3.79 µM | > 100 µM | 7640 nM | > 100 µM | 1.36 µM | > 100 µM | > 100 µM | > 100 µM | 0.351 µM | > 100 µM | 1.59 µM | > 100 µM | > 100 µM | > 100 µM | 1.38 µM | 6.1 µM | 438 nM | > 100 µM | 7.73 µM | > 100 µM |
| Cc1ccc(NC2=CC(=O)C(=O)c3ccccc32)cc1 | 2.23 µM | 9.13 µM | 2110 nM | 6.45 µM | 2.17 µM | 17.4 µM | 15 µM | > 100 µM | 1.74 µM | 3.2 µM | 3.47 µM | > 100 µM | 1.9 µM | 3.54 µM | 1.7 µM | 3.15 µM | 3960 nM | > 100 µM | 1.73 µM | 3.31 µM |
| Cc1cc(OCc2nn(CN3CCN(C)CC3)c(=S)n2/N=C/c2ccc(F)cc2)ccc1Cl | 17.8 µM | 32.3 µM | 18300 nM | 32.7 µM | 18.8 µM | 36.1 µM | 18.7 µM | 34.1 µM | 18 µM | 36.2 µM | 19.2 µM | 41.7 µM | 25 µM | 49.5 µM | 17.9 µM | 36.6 µM | 13300 nM | 29.7 µM | 17.6 µM | 32.7 µM |
| Nc1nc(N)c(-c2ccc(Cl)c(Cl)c2)c(CP(Cl)(Cl)(Cl)Br)n1 | 3.52 µM | > 100 µM | 2720 nM | > 100 µM | 11.7 µM | > 100 µM | 14.6 µM | > 100 µM | 4.4 µM | 84.3 µM | 2.79 µM | > 100 µM | 6.96 µM | > 100 µM | 6.7 µM | > 100 µM | 10200 nM | > 100 µM | 40.7 µM | > 100 µM |
| O=C(CCl)Nc1ccc(Cc2ccc(NC(=O)CCl)cc2)cc1 | 0.44 µM | 1.03 µM | 784 nM | 2.35 µM | 2.84 µM | > 100 µM | 2.09 µM | 5.1 µM | 1.76 µM | 4.31 µM | 1.67 µM | > 100 µM | 2.27 µM | 5.52 µM | 3.55 µM | 19.7 µM | 704 nM | 5.56 µM | 1.4 µM | 4.69 µM |
| CC[Si](CC)(CC)OC1[C@@H](O[Si](CC)(CC)CC)[C@@H](CNC(=O)NC)O[C@H]1n1cnc2c(NC(=O)Nc3ccccc3)ncnc21 (stereo partly specified) | 3.26 µM | 15.2 µM | 2610 nM | 7.85 µM | 3.96 µM | > 100 µM | 2.96 µM | 10.7 µM | 3.17 µM | > 100 µM | 3.49 µM | > 100 µM | 4.06 µM | 62.1 µM | 2.89 µM | 11.7 µM | 2360 nM | 5.2 µM | 3 µM | 12.2 µM |
| O=c1[nH]c(=O)n(C2OC(CO)C(O)C2O)cc1F (stereo unspecified) | 0.00778 µM | 7.27 µM | 16 nM | 7.18 µM |  | > 100 µM | 0.0462 µM | 21.1 µM | 0.0445 µM | > 77.9 µM | 0.018 µM | > 100 µM | 0.0442 µM | 26 µM |  | > 100 µM | 27.4 nM |  |  | > 100 µM |
| OCC1OC(n2cnc3c(NCc4ccco4)ncnc32)C(O)C1O (stereo unspecified) | 0.338 µM | 1.59 µM | 338 nM | 1.48 µM | 0.675 µM | > 35.7 µM | 2.16 µM | 10.3 µM | 2.08 µM | 15.1 µM | 4.47 µM | > 100 µM | 4.76 µM | > 100 µM | 1.21 µM | 8.3 µM | 1560 nM | 6.92 µM | 0.421 µM | 2.64 µM |
| COc1ccc2c(c1)C(=O)c1c-2n(CCCCl)c(=O)c2cc(N)ccc12 | > 57.9 µM | > 100 µM | 98200 nM | > 100 µM | > 100 µM | > 100 µM | > 63.7 µM | > 100 µM | > 100 µM | > 100 µM | > 48.7 µM | > 100 µM | > 61.7 µM | > 100 µM | > 64.6 µM | > 100 µM | > 62800 nM | > 100 µM | > 100 µM | > 100 µM |
